Literature values in publication PMC5389743 (Investigative Ophthalmology & Visual Science, 2017).

Key:
[1] = tested on: α-chymotrypsin–induced rabbit glaucoma model; settings: 0.4% Δ^8-THC submicron emulsion, ocular hypertensive rabbits
normotensive rabbits = settings: 0.4% Δ^8-THC submicron emulsion, after 2 hours

SMILES: CCCCCc1cc(O)c2c(c1)OC(C)(C)[C@@H]1CC=C(C)C[C@@H]21 [Δ^8-THC]
- Drop of IOP [1]: 6.5 mm of Hg
- Difference between the IOP with and without treatment (normotensive rabbits): 2 mm of Hg
